Experimental data as given in patent US7524503B2, “Human cytomegalovirus (HCMV) cytotoxic T cell epitopes, polyepitopes compositions comprising same and diagnostic and prophylactic and therapeutic uses therefor” (priority 2001, dated 2009).
Like-named read-outs stand apart in the source and are kept apart here.

Tests used:
Format in all cases: cell-based, human
CD4+ T cells = test: CD4+/CD8+ analysis of 20-mer peptides (intracellular IFN-γ staining or depletion ELISPOT)
Procedure: (§1) To determine whether a particular 20-mer peptide contained either a CD4^+- or CD8^+-restricted epitope, or both, CD4^+/CD8^+ cell depletion ELISPOT assays were performed on PBMC from healthy virus carriers. For any one experiment, three populations of cells were used: a) CD8^+-depleted PBMC, b) CD4^+-depleted PBMC, and c) non-depleted PBMC. These populations of cells were tested concurrently with the same peptides in a conventional ELISPOT assay as described herein above. DYNABEADS M-450 (Dynal, Oslo, Norway) that bound specifically to CD4^+- or CD8^+ cells were used to perform the depletion essentially according to manufacturers instructions. Beads were washed twice in cold PBS supplemented with 2% FCS using magnetic isolation. The requisite number of cells was resuspended in cold PBS supplemented with 2% FCS, added to the beads and then incubated at 4° C., in the dark, for 30 mins (CD8^+ beads) or 60 mins (CD4^+ beads). Populations were depleted of CD4^+ or CD8^+ cells using magnetic separation. After depletion, the non-attached cells were removed and washed once in growth medium, counted and used in conventional ELISPOT assay. Depleted cells were used at 1.7×10^5 cells per well and the non-depleted population was used at the standard 2.5×10^5 cells per well. After the depletion step, each respective cell population was assessed for the purity of CD4^+ and CD8^+ T cells by three-colour flow cytometry. Samples of depleted cell populations were stained with anti-CD3 antibody directly conjugated to fluorescein isothiocyanate (FITC), anti-CD4 antibody conjugated with phycoerythrin (PE) fluorochrome, and anti-CD8 antibody conjugated with Tricolor fluorochrome (described below). The percent of CD3^+/CD4^+ cells present within the CD8^+-depleted population and the percent of CD3^+/CD8^+ cells present within the CD4^+-depleted populations were assessed on FACSCalibur cytometer (Becton Dickinson). The purity of each population was greater than 90% and the results from the ELISPOT assays are expressed as the percentage of CD4+ or CD8^+ cells within the depleted populations that responded toward each peptide by producing IFN-γ.
(§2) PBMCs were incubated at 37° C. in RPMI+10% FCS with and without 10 μg/ml peptides for 6 hours. Golgiplug™ (Pharmingen, San Diego, Calif., USA) was added to the samples according to manufacturer's instructions during the second hour of incubation and cells activated with 25 ng/ml phorbol 12-myristidate 13-acetate (PMA; Sigma-Aldrich Co, St. Louis Mo.) and 1 μg/ml iomomycin (Sigma) acted as a positive control. Following the incubation, 1×10^6 cells/sample were washed and resuspended in staining buffer consisting of PBS with GolgiPlug™, 3% FCS and sodium azide. Cells were then stained with FITC conjugated anti-CD3-FITC (UCHT1, Immunotech, Marseille, France), and either Tricolor (TRI) conjugated anti-CD4 (S3.5, Caltag, Burlingame, Calif.) or anti-CD8 (3B5, Caltag) for 30 minutes, 4° C. in the dark. The cells were fixed for 20 min at 4° C. with Cytofix/Cytoperm™ (BD Biosciences) and resuspended in Perm/Wash™ permeabilization buffer (BD Biosciences) according to manufacturers protocol. Fixed cells were stained with phycoerythrin (PE) conjugated anti-human IFN-γ (B27, Pharmingen) for 30 min at 4° C. in the dark. As a negative control, cells were stained with appropriate isotype matched control antibodies. Cells were washed twice in permeabilization buffer and resuspended in staining buffer before analysis by three-colour flow cytometry on a FACSCalibur cytometer (BD Biosciences). All data analysis was carried out using FlowJo software (Tree Star, Inc. San Carlos, CA).
(§3) When using 20-mer peptides to map epitopes by ELISPOT, it is possible that some responses may be MHC class-II restricted, and not necessarily restricted through HLA class I alleles. It was evident throughout this study that some epitopes identified using ELISPOT could not be confirmed using cytotoxicity analysis. […]

CD8+ T cells = test: as above
Procedure: as §1, §2, §3

[1] = test system: PBMC from healthy HCMV seropositive donors; test: IFN-γ ELISPOT assay; details: peptide 10 μg/ml
Procedure: ELISPOT assay was used to assess whether stimulation of PBMC from a large panel of seropositive donors with HCMV peptides could induce IFN-γ expression in T cells. Briefly, a 96-well nitrocellulose plate (Multiscreen, Millipore) was coated overnight at 4° C. with mouse monoclonal antibody anti-IFN-γ IgG1 (10 μg/ml; Mabtech Nacka, Sweden). The plate was then washed six times in Phosphate Buffered Saline (PBS) and blocked for 1 hour at 37° C. with PBS supplemented with 5% FCS. The blocking solution was removed and PBMC from healthy HCMV seropositive donors were added at a concentration of 2.5×10^5 cells per well in growth medium. These cells were incubated for 18 h at 37° C. in a 5% CO2 atmosphere in the presence of synthetic peptides from HCMV antigens (10 μg/ml). After incubation, the plate was washed three times with PBS supplemented with 0.05% Tween, followed by three washes with PBS alone. Biotinylated anti-IFN-γ (Mabtech, Nacka Sweden) detection antibody was added to each well at a final concentration of 1 μg/ml in PBS. The plates were incubated at room temperature in the dark for 4 h and then washed, as described above. Streptavidin-Alkaline phosphatase (Sigma) was added to each well at a final concentration of 1 μg/ml in PBS and incubated at room temperature in the dark for 2 h. After a final wash with PBS, the substrate, 5-bromo-4-chloro-3-indolyl phosphate and nitro blue tetrazolium, was added to each well and the plates incubated for 30 min at RT. Cells that produced IFN-γ in response to the presence of peptide were detected as purple spots on the nitrocellulose membrane of each well. The spots were counted automatically using a closed-circuit camera (CCD) and ImagePro image analysis software or automated ELISPOT reader (AID, Germany). The T cell precursor frequency for each peptide was based on the total number of PBMC in the well and the number of peptide-specific spots per well, over an average of 3 wells. The number of peptide-specific spots was also calculated by subtracting the negative control values, which consisted of PBMC without peptide (an average of 3 wells), from the test wells.
To determine whether memory CTL responses against the predictive HCMV potential epitopes could be detected in healthy seropositive virus carriers, we used the ELISPOT assay, which allows rapid identification of CTL epitopes without prolonged in vitro culture.
We tested epitopes that were restricted for HLA A1, A3, A24, A26, B7, B8, B27, B35 and B44 in ELISPOT assays, to determine whether memory T cell responses could be detected in healthy HLA-matched virus carriers. PBMC from a cohort of healthy virus carriers (Table 2) were stimulated with individual peptides and the cells that produced IFN-γ were detected. CTL epitopes that were restricted through either HLA A1, A3, A24, A26, B7, B8 or B27, were identified.
Thus, a total of 450 peptides were produced. ELISPOT assays were used to determine whether ex vivo memory T cell responses could be detected in a cohort of 14 healthy virus carriers (Table 2). PBMC were stimulated with individual peptides and the cells that produced IFN-γ were detected.

[2] = test system: peptide-sensitized autologous PHA blasts or LCLs; set-up: key to CTL response: Y: Yes; ND: Not detected
[3] = overlapping 20mer peptides, Table 4

Sequence: AHELVCSMENTRATKMQVIG
- Responding cells (% CD4) (CD4+ T cells; donor seven): 0.04%
- Responding cells (% CD8) (CD8+ T cells; donor seven): 0.01%
- ELISPOT Responses (SFC/10^6 PBMC) ([1]; donor alpha): 169 SFC/10^6 PBMC
- ELISPOT Responses (SFC/10^6 PBMC) ([1]; donor seven): 231 SFC/10^6 PBMC

Sequence: CKTMQVNNKGIQIIYTRNHE
- Responding cells (% CD4) (CD4+ T cells; donor sixteen): 0%
- Responding cells (% CD8) (CD8+ T cells; donor sixteen): 0.14%
- ELISPOT Responses (SFC/10^6 PBMC) ([1]; donor sixteen): TC(154) SFC/10^6 PBMC

Sequence: CLPLMQKFPKQVMVRIFSTN (human cytomegalovirus IE2 CTL epitope peptide)
- Responding cells (% CD4) (CD4+ T cells; donor sixteen): 0%
- Responding cells (% CD8) (CD8+ T cells; donor sixteen): 0.15%
- ELISPOT Responses (SFC/10^6 PBMC) ([1]; donor sixteen): TC(256) SFC/10^6 PBMC

Sequence: DQYVKVYLESFCEDVPSGKL
- Responding cells (% CD4) (CD4+ T cells; donor delta): 0%
- Responding cells (% CD8) (CD8+ T cells; donor delta): 0.23%
- ELISPOT Responses (SFC/10^6 PBMC) ([1]; donor delta): SE(265) SFC/10^6 PBMC

Sequence: FPTKDVAL [reference compound]
- CTL response ([2]; predicted epitopes, Table 3): Y
- ELISPOT Responses (SFC/10^6 PBMC) ([1]; donor three): MW(445) SFC/10^6 PBMC

Sequence: FRNTNRSLEYKNLPFTIPSM
- Responding cells (% CD4) (CD4+ T cells; donor sixteen): 0%
- Responding cells (% CD8) (CD8+ T cells; donor sixteen): 0.25%
- ELISPOT Responses (SFC/10^6 PBMC) ([1]; donor sixteen): TC(187) SFC/10^6 PBMC

Sequence: GAAQGDDDVWTSGSDSDEEL
- Responding cells (% CD4) (CD4+ T cells; donor eight): 0%
- Responding cells (% CD8) (CD8+ T cells; donor eight): 0.01%
- ELISPOT Responses (SFC/10^6 PBMC) ([1]; donor eight): JW(248) SFC/10^6 PBMC

Sequence: HQVLDEAIKACKTMQVNNKG
- Responding cells (% CD4) (CD4+ T cells; donor sixteen): 0%
- Responding cells (% CD8) (CD8+ T cells; donor sixteen): 0.18%
- ELISPOT Responses (SFC/10^6 PBMC) ([1]; donor sixteen): TC(234) SFC/10^6 PBMC

Sequence: ILARNLVPMVATVQGQNLKY
- CTL response [2, 3]: Y
- ELISPOT Responses (SFC/10^6 PBMC) ([1]; donor four): 500 SFC/10^6 PBMC
- ELISPOT Responses (SFC/10^6 PBMC) ([1]; donor seven): 216 SFC/10^6 PBMC
- ELISPOT Responses (SFC/10^6 PBMC) ([1]; donor three): MW(229) SFC/10^6 PBMC

Sequence: KAAWSLKELHTHQLCPRSSD (human cytomegalovirus IE2 CTL epitope peptide)
- Responding cells (% CD4) (CD4+ T cells; donor sixteen): 0%
- Responding cells (% CD8) (CD8+ T cells; donor sixteen): 0.08%
- ELISPOT Responses (SFC/10^6 PBMC) ([1]; donor sixteen): TC(162) SFC/10^6 PBMC

Sequence: LNIPSINVHHYPSAAERKHR
- CTL response [2, 3]: Y
- ELISPOT Responses (SFC/10^6 PBMC) ([1]; donor sixteen): 222 SFC/10^6 PBMC
- ELISPOT Responses (SFC/10^6 PBMC) ([1]; donor twelve): 285 SFC/10^6 PBMC
